Patent publication US20160251402A1, “MICROPEPTIDES AND USE OF SAME FOR MODULATING GENE EXPRESSION” (UNIVERSITE PAUL SABATIER TOULOUSE III, priority 2013, published 2016)

Tests used:
MtmiR171b = assay: Accumulation of MtmiR171b / pre-MtmiR171b in M. truncatula roots (qRT-PCR); format: in vivo, Medicago truncatula; settings: for relative expression of pre-MtmiR171b: watering once daily for 5 days with peptide at 0.01, 0.1 or 1 μM vs control plants
Description: (§1) The surface of seeds of M truncatula was sterilized and they were left to germinate on agar plates for 5 days at 4° C. in the dark. The young shoots were then grown on 12-cm square plates filled with Fahraeus medium without nitrogen and containing 7.5 μM phosphate (Lauressergues et al., Plant J., 72(3): 512-22, 2012). The lateral roots were counted every day. In pots, the plants were watered every other day with modified Long Ashton medium with low phosphorus content (Balzergue et al., Journal of Experimental Botany, (62)1049-1060, 2011).
(§2) The peptides were synthesized by Eurogentec or Smartox-Biotech. MtmiPEP171b1 was resuspended in a solution of 40% water/50% acetonitrile/10% acetic acid (v/v/v), and the other peptides were resuspended in water.
The RNA was extracted using the reagent Tri-Reagent (MRC) according to the manufacturer's instructions, except for precipitation of the RNA, which was carried out with 3 volumes of ethanol. The everse transcription of the RNA was carried out using the specific stem-loop primer RTprimer171b in combination with hexamers for performing the reverse transcription of RNA of high molecular weight.
In brief, 1 μg of RNA was added to the stem-loop primer MIR171b (0.2 μM), the hexamer (500 ng), the buffer RT (1×), the enzyme SuperScript Reverse transcriptase (SSIII) (one unit), the dNTPs (0.2 mM each), DTT (0.8 mM) in a final reaction mixture of 25 μl. […]
(§3) The mean values of the relative expression of the genes or of the production of lateral roots were analysed using the Student test or the Kruskal-Wallis test. […]
(§4) The composite plants having roots transformed with Agrobacterium rhizogenes were obtained by the method described in Boisson-Dernier et al. (Mol Plant-Microbe Interact, 18: 1269-1276, 2005). The transformed roots were verified and selected by observations of DsRED with a binocular fluorescence magnifier. […]

[1] = system: HAM1 (accession No. MtGI9-TC114268); assay: Expression of the HAM1 gene in M. truncatula (qRT-PCR); format: in vivo, Medicago truncatula
Description: as §1, §2
The total RNA was extracted from roots of M. truncatula or from tobacco leaves using the extraction kit RNeasy Plant Mini Kit (Qiagen). […]
as §3, §4

[2] = watering once daily for 5 days with peptide at 0.01, 0.1 or 1 μM vs control plant

## MLLHRLSKFCKIERDIVYIS (listed as Medicago truncatula) [MtmiPEP171b1]
MtmiR171b; [2]
  relative expression of MtmiR171b: increase in the accumulation
MtmiR171b
  relative expression of pre-MtmiR171b: increase in the accumulation of pre-MtmiR171b
MtmiR171b; listed as MtPEP171b1
  relative expression of pre-MtmiR171b: increase in the accumulation
[1]; plant in which MtmiPEP171b1 is overexpressed vs control plant
  relative expression of HAM1: decrease in the expression of the HAM1 and HAM2 genes
[1]; [2]
  relative expression of HAM1: decrease in the expression of the HAM1 and HAM2 genes
